Our source for the efflux ratio, inhibition and Ki values is patent US20180230160A1, “2-AMINO-7A-PHENYL-3,4,4A,5,7,7A-HEXAHYDROFURO[3,4-B]PYRIDINES AS BACE1 INHIBITORS” (H. Lundbeck A/S, priority 2015, published 2018).

Usually efflux ratio stands for the permeability from basolateral to apical divided by that in the opposite direction, in the common usage. Broadly, the inhibition is the relative decrease from the control value, in per cent. One may read the Ki as a measure of affinity in units of concentration, obtained from inhibition or displacement.

Data set [1] deals with P-gp (MDR1). Kind of data set: MDCK-MDR1 assay (permeability, efflux ratio). Format: in vitro ADME. The note with it: dog, Papp BA/Papp AB, 60-minute incubation. On the procedure:
The permeability of the test compounds was assessed in MDCK-MDR1 cells that were cultured to confluency (4-6 days) in a 96 transwell plate. Test compounds were diluted with the transport buffer (HBSS+1% BSA) to a concentration of 0.5 μM and applied to the apical or basolateral side of the cell monolayer. Permeation of the test compounds from A to B direction or B to A direction was determined in triplicate over a 60-minute incubation time at 37° C. and 5% CO2 with a relative humidity of 95%. Test compounds were quantified by LC-MS/MS analysis based on the peaks area ratios of analyte/IS in both the receiver and donor wells of the transwell plate. The apparent permeability coefficient Papp (cm/s) was calculated using the equation: […]
Where dCr/dt is the cumulative concentration of compound in the receiver chamber as a function of time (μM/s); Vr is the solution volume in the receiver chamber (0.05 mL on the apical side; 0.25 mL on the basolateral side); A is the surface area for the transport, i.e. 0.0804 cm^2 for the area of the monolayer; CO is the initial concentration in the donor chamber (μM).

In data set [2] the target is T1, human BACE1 (Homo sapiens, UniProt P56817). Kind of data set: BACE1 efficacy assay (FRET-based, commercial BACE1 kit). Format: biochemical. More on the design: purchased Life Technologies P2985. The settings on record: 10 μM test compound. Here is the method: The efficacy assay was performed as a FRET-based assay using a commercially available BACE1 kit (Life Technologies, P2985). 2 μl test compound at 10 μM (final concentration) and 15 μl BACE1 enzyme from the kit (final concentration 3 nM) were preincubated for 15 minutes at room temperature before addition of 15 μl of substrate from the kit (250 nM final concentration) and incubated for additional 90 minutes at room temperature. The assay plate was subsequently read in a Pherastar (Ex540/Em590). The enzyme activity observed in presence of test compound were normalized to the enzyme activity observed in presence of buffer and 10 μM (final concentration) of the high affinity BACE1 reference inhibitor (S)-6-[3-Chloro-5-(5-prop-1-ynyl-pyridin-3-yl)-thiophen-2-yl]-2-imino-3,6-dimethyl-tetrahydropyrimidin-4-one, respectively. The efficacy of the test compounds was evaluated at 10 μM (final concentration) and defined as the percent inhibition of the enzyme activity using the equation % inhibition=100%−normalized enzyme activity in percent.

Data set [3] has as its target T1, human BACE1. The data set is described as follows: BACE1 binding assay (SPA-based radioligand binding). The arrangement: biotin (biotinylated form); made in house; host or cells: Freestyle HEK293 cells. The settings on record: pH 4.5, 10 nM radioligand, Ki=IC50/(1+L/Kd). Here is the method: The binding assay was performed as SPA-based assay using a biotinylated form of human BACE1 recombinantly expressed and subsequently purified from Freestyle HEK293 cells. The binding assay was run in a 50 mM sodium acetate buffer, pH 4.5 containing 50 mM NaCl and 0.03% Tween-20 in white clear bottom 384 plates (Corning #3653). 10 nM (final concentration) radioligand ([^3H]—N-((1S,2R)-1-benzyl-3-cyclopropylamino-2-hydroxy-propyl)-5-(methanesulfonyl-methyl-amino)-N—((R)-1-phenyl-ethyl)-isophthalamide) (TRQ11569 purchased from GE Healthcare) was mixed with test compound at a given concentration, 6 nM (final concentration) human BACE1 and 25 μg Streptavidin coated PVT core SPA beads (RPNQ0007, GE Healthcare Life Sciences) in a total volume of 40 μl. Several concentrations of each test compound were tested in the assay for […] determination. The plates were incubated for one hour at room temperature and counted in a Wallac Trilux counter. Total and non-specific binding were determined using buffer and 1 μM (final concentration) of the high affinity BACE1 reference inhibitor (S)-6-[3-chloro-5-(5-prop-1-ynyl-pyridin-3-yl)-thiophen-2-yl]-2-imino-3,6-dimethyl-tetrahydro-pyrimidin-4-one, respectively. For each test compound, a 1050 value (the concentration mediating 50% inhibition of the specific binding of the radioligand) was determined from concentration-response curve and used to calculate the Ki from the equation Ki=IC50/(1+L/Kd), where L and Kd are the final concentration of the radioligand used in the assay and the dissociation constant of the radioligand, respectively. The Kd of the radioligand was determined from saturation binding experiments.

T1 sequence (P56817 46-501): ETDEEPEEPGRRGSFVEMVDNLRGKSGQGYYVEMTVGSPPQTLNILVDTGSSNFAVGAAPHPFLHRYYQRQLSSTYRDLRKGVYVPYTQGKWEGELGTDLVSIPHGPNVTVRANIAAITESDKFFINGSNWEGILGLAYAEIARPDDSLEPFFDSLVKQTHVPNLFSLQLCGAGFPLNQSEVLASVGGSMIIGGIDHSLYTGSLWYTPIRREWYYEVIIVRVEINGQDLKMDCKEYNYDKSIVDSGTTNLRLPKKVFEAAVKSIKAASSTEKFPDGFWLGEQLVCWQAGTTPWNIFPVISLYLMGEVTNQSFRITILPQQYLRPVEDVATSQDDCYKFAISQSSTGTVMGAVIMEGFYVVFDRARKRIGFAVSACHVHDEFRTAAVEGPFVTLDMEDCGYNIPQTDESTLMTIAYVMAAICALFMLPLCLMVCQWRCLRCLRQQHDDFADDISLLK

On to `COc1cnc(C(=O)Nc2cc(F)c(F)c([C@]34COC[C@H]3C[C@](F)(CF)C(N)=N4)c2)cn1` [Example 18, N-[3-[(3R,4aS,7aS)-2-amino-3-fluoro-3-(fluoromethyl)-4,4a,5,7-tetrahydrofuro[3,4-b]pyridin-7a-yl]-4,5-difluoro-phenyl]-5-methoxy-pyrazine-2-carboxamide], for which the efflux ratio at 60 min, 0.5 μM in data set [1] is 1.31. Also, the inhibition at 10 µM in data set [2] worked out at 105%. In data set [3], this compound gave a Ki of 110 nM.

As for `NC1=N[C@@]2(c3cc(NC(=O)c4ccc(F)cn4)ccc3F)COC[C@H]2C[C@@]1(F)CF` [Example 20, N-(3-((3S,4aS,7aS)-2-amino-3-fluoro-3-(fluoromethyl)-3,4,4a,5-tetrahydrofuro[3,4-b]pyridin-7a-yl)-4-fluorophenyl)-5-fluoropicolinamide], the efflux ratio at 60 min, 0.5 μM in data set [1] was 0.71. The inhibition at 10 µM in data set [2] was 103%. For the same compound, in data set [3], the affinity corresponds to a Ki of 140 nM.

Turning to `COc1ccc(C(=O)Nc2ccc(F)c([C@]34COC[C@H]3C[C@@](F)(CF)C(N)=N4)c2)nc1` [Example 21, N-(3-((3S,4aS,7aS)-2-amino-3-fluoro-3-(fluoromethyl)-3,4,4a,5,7,7a-hexahydrofuro[3,4-b]pyridin-7a-yl)-4-fluorophenyl)-5-methoxypicolinamide], the efflux ratio at 60 min, 0.5 μM in data set [1] was 0.61. Besides, in data set [2], the inhibition at 10 µM is 103%. This compound also registered a Ki in data set [3] of 55 nM.

For the compound `NC1=N[C@@]2(c3cc(NC(=O)c4ccc(F)cn4)cc(F)c3F)COC[C@H]2C[C@@]1(F)CF` [Example 23, N-[3-[(3S,4aS,7aS)-2-amino-3-fluoro-3-(fluoromethyl)-4,4a,5,7-tetrahydrofuro[3,4-b]pyridin-7a-yl]-4,5-difluoro-phenyl]-5-fluoro-pyridine-2-carboxamide], the efflux ratio at 60 min, 0.5 μM in data set [1] was 0.89. The inhibition at 10 µM in data set [2] came to 103%. Also, in data set [3], the Ki turned out to be 200 nM.

For `COc1cnc(C(=O)Nc2cc(F)c(F)c([C@]34COC[C@H]3C[C@@](F)(CF)C(N)=N4)c2)cn1` [Example 24, N-[3-[(3S,4aS,7aS)-2-amino-3-fluoro-3-(fluoromethyl)-4,4a,5,7-tetrahydrofuro[3,4-b]pyridin-7a-yl]-4,5-difluoro-phenyl]-5-methoxy-pyrazine-2-carboxamide], in data set [1], the efflux ratio at 60 min, 0.5 μM amounted to 0.82. The inhibition at 10 µM in data set [2] stood at 103%. Besides, the affinity in data set [3] corresponds to a Ki of 130 nM.
